“Also recorded” adds a separate entry of the source. Counter-ions that a name gives are not always drawn. Like-named read-outs stand apart in the source and are kept apart here.
Key:
human α7V274T nAChR [1] = molecular target: T1, human α7V274T nAChR (Homo sapiens, UniProt P36544, V274T); assay: Agonist concentration-response, two-electrode voltage-clamp in Xenopus laevis oocytes; assay type: cell-based
T1 construct: This created a new cDNA encoding a full length α7 subunit; expressed in transfected cells

human α7 wild type nAChR [2] = molecular target: T2, human α7 wild type nAChR (Homo sapiens, UniProt P36544); assay: as above; assay type: cell-based; conditions: for Hill coefficient: Hill equation fit
T2 construct: This created a new cDNA encoding a full length α7 subunit; expressed in transfected cells; host or cells: Xenopus laevis oocytes injected with receptor RNA or DNA

chick α7V251T nAChR [3] = conditions: cited from earlier work
human α7V274T nAChR [4] = molecular target: T1, human α7V274T nAChR; assay: nAChR antagonists applied alone as agonists, current response in Xenopus oocytes; assay type: cell-based; conditions: for % Activation, 10 μM ACh: compared to activation by 10 μM ACh, ligand μM: DHβE 10, d-TC 1, MLA 0.01, MEC 10, ATROP 2, mean ± s.e.m. (n)
human α7 wild type nAChR [5] = molecular target: T2, human α7 wild type nAChR; assay: as above; assay type: cell-based; conditions: ligand μM: DHβE 10, d-TC 1, MLA 0.01, MEC 10, ATROP 2
human α7V274T nAChR [6] = molecular target: T1, human α7V274T nAChR; assay: Inhibition of the response to ACh in Xenopus oocytes; assay type: cell-based; conditions: for % Inhibition, 1 μM ACh: inhibition of response to 1 μM ACh; for % Inhibition, 1 μM ACh / % Inhibition, 10 μM ACh: ligand μM: DHβE 10, d-TC 1, MLA 0.01, MEC 10, ATROP 2; for % Inhibition, 10 μM ACh: inhibition of response to 10 μM ACh; for inhibition of ACh response: MEC 10 μM against 1 μM ACh in three of the five oocytes inhibited by atropine
human α7 wild type nAChR [7] = molecular target: T2, human α7 wild type nAChR; assay: as above; assay type: cell-based; conditions: ligand μM: DHβE 10, d-TC 1, MLA 0.01, MEC 10, ATROP 2; for % Inhibition, % of 200 μM ACh: inhibition of response to 200 μM ACh; for % Inhibition, % of 10 mM ACh: inhibition of response to 10 mM ACh
chick α7V251T nAChR [8] = molecular target: chick α7V251T nAChR (Gallus gallus, UniProt P22770, V274T); conditions: 10 μM DHβE; cited from earlier work
chick α7 nAChR = chick α7 nAChR (Gallus gallus, UniProt P22770); conditions: cited from earlier work
human α7 nAChR = human α7 nAChR (Homo sapiens, UniProt P36544); conditions: cited from earlier work
chick α7L247T nAChR = chick α7L247T nAChR (Gallus gallus, UniProt P22770, L270T); conditions: cited from earlier work

Structure (SMILES): CN1CCCC1c1cccnc1 (single isomer, unassigned; (-)) [(−)-nicotine]
- Hill coefficient (human α7V274T nAChR [1]; Hill equation fit): 1.3±0.2
- Hill coefficient (human α7 wild type nAChR [2]): 1.2±0.2

Structure (SMILES): Cc1ncccc1OC[C@@H]1CCCN1 [ABT-089]
- EC50 (human α7V274T nAChR [1]): 28 ± 3 µM
- efficacy (human α7V274T nAChR [1]; responses normalized to the response to ACh): 40±1%
- agonist type (human α7 wild type nAChR [2]): partial agonists

Structure (SMILES): CC(=O)OCC[N+](C)(C)C [ACh, Acetylocholine chloride]
- Hill coefficient (human α7V274T nAChR [1]; Hill equation fit): 1.8±0.2
- Hill coefficient (human α7 wild type nAChR [2]): 0.94±0.09
- increase in ACh potency versus chick α7 wild type (chick α7V251T nAChR [3]): 180 fold

Structure (SMILES): Br.CO[C@H]1CC=C2CCN3CCC4=C(CC(=O)OC4)[C@]23C1 [DHβE, Dihydro-β-erythroidine hydrobromide]
- % Activation, 10 μM ACh (human α7V274T nAChR [4]): 4 ± 1 (4) %
- % Activation, % of 10 mM ACh (human α7 wild type nAChR [5]): −0.2 ± 0.1 (5) %
- % Inhibition, 1 μM ACh (human α7V274T nAChR [6]): 69 ± 5 (4) %
- % Inhibition, 10 μM ACh (human α7V274T nAChR [6]): 52 ± 6 (4) %
- % Inhibition, % of 200 μM ACh (human α7 wild type nAChR [7]): 41 ± 10 (4) %
- % Inhibition, % of 10 mM ACh (human α7 wild type nAChR [7]): 23 ± 2 (4) %
- response as % of the ACh response (chick α7V251T nAChR [8]): 66%

Structure (SMILES): C[N+]1(C)CCN(c2ccccc2)CC1 [DMPP, 1,1-dimethyl-4-phenylpiperazinium]
- agonist type (chick α7 nAChR): very weak partial agonist
- agonist type (human α7 nAChR): highly efficacious agonist

Structure (SMILES): COc1ccc(/C=C2\CCCN=C2c2cccnc2)c(OC)c1 [GTS-21]
- agonist type (human α7V274T nAChR [1]): full agonist
- Hill coefficient (human α7V274T nAChR [1]; Hill equation fit): 1.5±0.1
- EC50 (human α7V274T nAChR [1]; peak amplitude normalized to ACh response, Hill equation fit, holding potential −60 mV): 4.3 ± 0.3 µM
- agonist type (human α7 wild type nAChR [2]): partial agonists

Structure (SMILES): CNC1(C)C2CCC(C2)C1(C)C (centres unmarked) [MEC, mecamylamine hydrochloride]
- % Activation, 10 μM ACh (human α7V274T nAChR [4]): −1.9 ± 0.2 (4) %
- % Activation, % of 10 mM ACh (human α7 wild type nAChR [5]): −0.3 ± 0.2 (3) %
- inhibition of ACh response (human α7V274T nAChR [6]): completely blocked
- % Inhibition, 1 μM ACh (human α7V274T nAChR [6]): 101 ± 1 (4) %
- % Inhibition, 10 μM ACh (human α7V274T nAChR [6]): 53 ± 2 (4) %
- % Inhibition, % of 200 μM ACh (human α7 wild type nAChR [7]): 82 ± 1 (3) %
- % Inhibition, % of 10 mM ACh (human α7 wild type nAChR [7]): 85 ± 3 (3) %

Structure (SMILES): COc1cc2c3cc1Oc1cc(ccc1O)C[C@@H]1c4c(cc(OC)c(O)c4Oc4ccc(cc4)C[C@@H]3N(C)CC2)CC[N+]1(C)C.Cl.O.O.O.O.O.[Cl-] [d-TC, d-tubocurarine chloride]
- outward current amplitude, % of the maximal inward current response to ACh (human α7V274T nAChR [4]; MLA 10 nM, MEC 10 μM, d-TC 1 μM (d-TC in two of four oocytes)): 3-5%
- % Activation, 10 μM ACh (human α7V274T nAChR [4]): −2 ± 1 (4) %
- current response to ligand alone (human α7V274T nAChR [4]; d-TC 1 μM, atropine 2 μM): did not elicit agonist-like inward currents; also recorded: did not activate inward currents
- % Activation, % of 10 mM ACh (human α7 wild type nAChR [5]): −0.1 ± 0.1 (5) %
- inhibition of ACh response (human α7V274T nAChR [6]): potent antagonist
- % Inhibition, 1 μM ACh (human α7V274T nAChR [6]): 99 ± 1 (4) %
- % Inhibition, 10 μM ACh (human α7V274T nAChR [6]): 97 ± 3 (3) %
- % Inhibition, % of 200 μM ACh (human α7 wild type nAChR [7]): 28 ± 2 (4) %
- % Inhibition, % of 10 mM ACh (human α7 wild type nAChR [7]): 25 ± 3 (4) %
- activation of inward current (chick α7L247T nAChR): full response

— patent US6683157B2, “Variant human α7 acetylcholine receptor subunit, and methods of production and use thereof” (priority 1996, dated 2004)
